Experimental data taken from patent publication US20230085307A1, “PYRIDAZINONE COMPOUND AND HERBICIDE” (NISSAN CHEMICAL CORPORATION, priority 2019, published 2023).

What was measured:
chickweed [1] = assay: Test Example 5: herbicidal effect by foliage application, plastic box (Table 20, symbol P); assay type: in vivo, common chickweed (Stellaria media); conditions: foliage application, 320 g/ha, three weeks after application
Outline: (§1)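 Sow seeds spot-wise in sterilized diluvial soil; cover with ~1.5 cm soil. Grow 14 days in greenhouse, 25° C. to 30° C. Spray foliage with emulsion diluted to predetermined amount. Rate effect after 3 weeks.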

lambsquarters = assay: Test Example 4: herbicidal effect by soil treatment (Table 19, symbol O); assay type: in vivo, lambsquarters (Chenopodium album); conditions: amount of applied herbicide 320 g/ha
Outline: (§2)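 Soil-surface application: an emulsion agent diluted with water to the predetermined dose is sprayed uniformly over seeds lying under roughly 1.5 cm of sterilized diluvial soil. Boxes stay in a greenhouse at 25° C. to 30° C. Three weeks later, each species is graded on previously defined criteria.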

velvetleaf [2] = assay: Test Example 4: herbicidal effect by soil treatment (Table 19, symbol M); assay type: in vivo, velvetleaf (Abutilon theophrasti); conditions: amount of applied herbicide 320 g/ha
Outline: as §2

Italian ryegrass = assay: Test Example 5: herbicidal effect by foliage application, plastic box (Table 20, symbol K); assay type: in vivo, Italian ryegrass (Lolium multiflorum); conditions: foliage application, 320 g/ha, three weeks after application
Outline: as §1

oval-leafed pondweed = assay: Test Example 2: herbicidal activity, application during weed generation under submerged conditions (Table 17, symbol C); assay type: in vivo, oval-leafed pondweed (Monochoria vaginalis); conditions: AAH 320 g/ha; application during weed generation, submerged conditions
Outline: (§3)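 3-wk visual-criteria score after one water-surface dose. Emulsion formulation, water-diluted to set rate; applied at 1–2 leaf stage; alluvial soil, 4 cm standing water; seeds co-sown; greenhouse 25–30° C.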

chickweed [3] = assay: Test Example 4: herbicidal effect by soil treatment (Table 19, symbol P); assay type: in vivo, common chickweed (Stellaria media); conditions: amount of applied herbicide 320 g/ha
Outline: as §2

rice flat sedge = assay: Test Example 3: herbicidal effect by foliage application, Wagner pot (Table 18, symbol E); assay type: in vivo, rice flat sedge (Cyperus iria); conditions: 320 g/ha
Outline: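 Plants were sown in alluvial soil held under 0.1–0.5 cm standing water and grown 14 days in a greenhouse at 25–30 °C. An emulsifiable formulation, water-diluted to the set dose, was then sprayed onto the foliage, and effects were scored three weeks later using previously defined criteria.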

green foxtail [4] = assay: Test Example 5: herbicidal effect by foliage application, plastic box (Table 20, symbol G); assay type: in vivo, green foxtail (Setaria viridis); conditions: foliage application, 320 g/ha, three weeks after application
Outline: as §1

late watergrass [5] = assay: Test Example 1: herbicidal activity, application before weed generation under submerged conditions (Table 16, symbol A); assay type: in vivo, late watergrass (Echinochloa oryzicola); conditions: amount of applied herbicide 320 g/ha
Outline: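 Emulsion formulation, water-diluted to set dose, was put onto the flooded surface (4 cm depth, alluvial soil) the same day weeds were sown and 2.5-leaf rice transplanted. After 3 weeks at 25-30 °C under glass, each species was rated 0 (≤5% kill) to 5 (≥90% kill).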

redroot pigweed = assay: Test Example 5: herbicidal effect by foliage application, plastic box (Table 20, symbol N); assay type: in vivo, redroot pigweed (Amaranthus retroflexus); conditions: foliage application, 320 g/ha, three weeks after application
Outline: as §1

late watergrass [6] = assay: Test Example 2: herbicidal activity, application during weed generation under submerged conditions (Table 17, symbol A); assay type: in vivo, late watergrass (Echinochloa oryzicola); conditions: AAH 320 g/ha; application during weed generation, submerged conditions
Outline: as §3

green foxtail [7] = assay: Test Example 4: herbicidal effect by soil treatment (Table 19, symbol G); assay type: in vivo, green foxtail (Setaria viridis); conditions: amount of applied herbicide 320 g/ha
Outline: as §2

velvetleaf [8] = assay: Test Example 5: herbicidal effect by foliage application, plastic box (Table 20, symbol M); assay type: in vivo, velvetleaf (Abutilon theophrasti); conditions: foliage application, 320 g/ha, three weeks after application
Outline: as §1

persian speedwell = assay: Test Example 4: herbicidal effect by soil treatment (Table 19, symbol R); assay type: in vivo, Persian speedwell (Veronica persica); conditions: amount of applied herbicide 320 g/ha
Outline: as §2

barnyard grass = assay: Test Example 4: herbicidal effect by soil treatment (Table 19, symbol H); assay type: in vivo, barnyard grass (Echinochloa crus-galli); conditions: amount of applied herbicide 320 g/ha
Outline: as §2

windgrass = assay: Test Example 4: herbicidal effect by soil treatment (Table 19, symbol L); assay type: in vivo, windgrass (Apera spica-venti); conditions: amount of applied herbicide 320 g/ha
Outline: as §2

Japanese bulrush = assay: Test Example 2: herbicidal activity, application during weed generation under submerged conditions (Table 17, symbol B); assay type: in vivo, Japanese bulrush (Schoenoplectus juncoides); conditions: AAH 320 g/ha; application during weed generation, submerged conditions
Outline: as §3

| Compound | P: chickweed, herbicidal effect grade (chickweed [1]) | O: lambsquarters, herbicidal effect grade (lambsquarters) | M: velvetleaf, herbicidal effect grade (velvetleaf [2]) | K: Italian ryegrass, herbicidal effect grade (Italian ryegrass) | herbicidal effect rating, C: oval-leafed pondweed (oval-leafed pondweed) | P: chickweed, herbicidal effect grade (chickweed [3]) | herbicidal effect on rice flat sedge (E) (rice flat sedge) | G: green foxtail, herbicidal effect grade (green foxtail [4]) | Herbicidal effect, A: late watergrass (late watergrass [5]) | N: redroot pigweed, herbicidal effect grade (redroot pigweed) | herbicidal effect rating, A: late watergrass (late watergrass [6]) | G: green foxtail, herbicidal effect grade (green foxtail [7]) | M: velvetleaf, herbicidal effect grade (velvetleaf [8]) | R: persian speedwell, herbicidal effect grade (persian speedwell) | H: barnyard grass, herbicidal effect grade (barnyard grass) | L: windgrass, herbicidal effect grade (windgrass) | herbicidal effect rating, B: Japanese bulrush (Japanese bulrush) |
| --- | --- | --- | --- | --- | --- | --- | --- | --- | --- | --- | --- | --- | --- | --- | --- | --- | --- |
| CCCC(=O)Oc1c(C)nn(C)c(=O)c1-c1c(-c2ccc(F)cc2OCC)sc2cc(OCC)ccc12 [3-096] | 5 (Herbicidal rate of 90% or more (almost completely withered)) | 5 (Herbicidal rate of 90% or more (almost completely withered)) | 4 (Herbicidal rate of 70% or more and less than 90%) | 3 (Herbicidal rate of 40% or more and less than 70%) | 4 (Herbicidal rate of 70% or more and less than 90%) | 5 (Herbicidal rate of 90% or more (almost completely withered)) | 5 (Herbicidal rate of 90% or more (almost completely withered)) | 4 (Herbicidal rate of 70% or more and less than 90%) | 5 (Herbicidal rate of 90% or more (almost completely withered)) | 5 (Herbicidal rate of 90% or more (almost completely withered)) | 4 (Herbicidal rate of 70% or more and less than 90%) | 4 (Herbicidal rate of 70% or more and less than 90%) | 5 (Herbicidal rate of 90% or more (almost completely withered)) | 5 (Herbicidal rate of 90% or more (almost completely withered)) | 0 (Herbicidal rate of 5% or less (almost no effect)) | 5 (Herbicidal rate of 90% or more (almost completely withered)) | 5 (Herbicidal rate of 90% or more (almost completely withered)) |
| CCCOc1ccc2c(-c3c(O)c(C)nn(C)c3=O)c(-c3ccccc3OCC)sc2c1 [3-103] | 5 (Herbicidal rate of 90% or more (almost completely withered)) | 5 (Herbicidal rate of 90% or more (almost completely withered)) | 3 (Herbicidal rate of 40% or more and less than 70%) | 5 (Herbicidal rate of 90% or more (almost completely withered)) | 3 (Herbicidal rate of 40% or more and less than 70%) | 5 (Herbicidal rate of 90% or more (almost completely withered)) | 5 (Herbicidal rate of 90% or more (almost completely withered)) | 5 (Herbicidal rate of 90% or more (almost completely withered)) | 5 (Herbicidal rate of 90% or more (almost completely withered)) | 5 (Herbicidal rate of 90% or more (almost completely withered)) | 2 (Herbicidal rate of 20% or more and less than 40%) | 4 (Herbicidal rate of 70% or more and less than 90%) | 5 (Herbicidal rate of 90% or more (almost completely withered)) | 5 (Herbicidal rate of 90% or more (almost completely withered)) | 4 (Herbicidal rate of 70% or more and less than 90%) | 5 (Herbicidal rate of 90% or more (almost completely withered)) | 3 (Herbicidal rate of 40% or more and less than 70%) |
| C=CCOc1ccc2c(-c3c(O)c(C)nn(C)c3=O)c(-c3ccccc3OC)sc2c1 [3-111] | 5 (Herbicidal rate of 90% or more (almost completely withered)) | 5 (Herbicidal rate of 90% or more (almost completely withered)) | 3 (Herbicidal rate of 40% or more and less than 70%) | 5 (Herbicidal rate of 90% or more (almost completely withered)) | 3 (Herbicidal rate of 40% or more and less than 70%) | 3 (Herbicidal rate of 40% or more and less than 70%) | 5 (Herbicidal rate of 90% or more (almost completely withered)) | 5 (Herbicidal rate of 90% or more (almost completely withered)) | 5 (Herbicidal rate of 90% or more (almost completely withered)) | 5 (Herbicidal rate of 90% or more (almost completely withered)) | 4 (Herbicidal rate of 70% or more and less than 90%) | 5 (Herbicidal rate of 90% or more (almost completely withered)) | 5 (Herbicidal rate of 90% or more (almost completely withered)) | 5 (Herbicidal rate of 90% or more (almost completely withered)) | 4 (Herbicidal rate of 70% or more and less than 90%) | 0 (Herbicidal rate of 5% or less (almost no effect)) | 3 (Herbicidal rate of 40% or more and less than 70%) |
| COc1ccccc1-c1sc2cc(OCC(F)F)ccc2c1-c1c(O)c(C)nn(C)c1=O [3-114] | 5 (Herbicidal rate of 90% or more (almost completely withered)) | 5 (Herbicidal rate of 90% or more (almost completely withered)) | 4 (Herbicidal rate of 70% or more and less than 90%) | 5 (Herbicidal rate of 90% or more (almost completely withered)) | 5 (Herbicidal rate of 90% or more (almost completely withered)) | 5 (Herbicidal rate of 90% or more (almost completely withered)) | 5 (Herbicidal rate of 90% or more (almost completely withered)) | 5 (Herbicidal rate of 90% or more (almost completely withered)) | 5 (Herbicidal rate of 90% or more (almost completely withered)) | 5 (Herbicidal rate of 90% or more (almost completely withered)) | 3 (Herbicidal rate of 40% or more and less than 70%) | 5 (Herbicidal rate of 90% or more (almost completely withered)) | 5 (Herbicidal rate of 90% or more (almost completely withered)) | 5 (Herbicidal rate of 90% or more (almost completely withered)) | 5 (Herbicidal rate of 90% or more (almost completely withered)) | 5 (Herbicidal rate of 90% or more (almost completely withered)) | 4 (Herbicidal rate of 70% or more and less than 90%) |
